# Patent EP0211490B1, “Antibiotics of the vancomycin-class” (SMITHKLINE BEECHAM CORPORATION, priority 1985, dated 1987)
# Bridge positions count the residues as written; N and C are the ends. Square brackets hold non-standard residues; d marks the D form. Peptide text beside a SMILES is read from it. * marks the point of attachment. Ileψ(thiazoline)Cys = CC[C@H](C)[C@H](N)C1=N[C@H](C(=O)*)CS1; dOrn = NCCC[C@@H](N)C(=O)O
# Test system: K. aridum
# Assay: susceptibility of K. aridum to antibiotic disks (diffusion method)
# Type: cell-based, Kibdelosporangium aridum
# Settings: BBL susceptibility disks, content per antibiotic; one week at 28°C
# Experimental: Susceptibility of K. aridum to antibiotics was examined by placing BBL susceptibility disks on nutrient agar plates seeded with K. aridum as an overlay. Diameters of the zones of inhibition were measured after incubation for one week at 28°C.
# Susceptibility to Antibiotics. By the diffusion method, K. aridum was resistant to disks impregnated with gentamicin (10 µg), tobramycin (10 µg), streptomycin (10 µg), vancomycin (30 µg), penicillin (10 units), bacitracin (2 units), lincomycin (2 µg), clindamycin (2 µg), and cephalothin (30 µg). Chlortetracycline (5 µg) produced 18 mm zones of inhibition; tetracycline (5 µg) 11-12 mm zones; rifampin (5 µg) 11-15 mm zones; novobiocin (5 µg) 27-28 mm zones. All zones of inhibition contained at least a few resistant colonies.
row,Compound,susceptibility by the diffusion method (in words)
1,CC(=O)OCC1=C(C(=O)O)N2C(=O)[C@@H](NC(=O)Cc3cccs3)[C@H]2SC1 [cephalothin],resistant
2,CCC[C@@H]1C[C@@H](C(=O)N[C@@H]([C@H]2O[C@H](SC)[C@H](O)[C@@H](O)[C@H]2O)[C@@H](C)O)N(C)C1 [lincomycin],resistant
3,CC[C@H](C)[C@H](N)C1=N[C@H](C(=O)N[C@@H](CC(C)C)C(=O)N[C@H](CCC(=O)O)C(=O)N[C@H](C(=O)N[C@H]2CCCCNC(=O)[C@H](CC(N)=O)NC(=O)[C@@H](CC(=O)O)NC(=O)[C@H](Cc3cnc[nH]3)NC(=O)[C@@H](Cc3ccccc3)NC(=O)[C@H]([C@@H](C)CC)NC(=O)[C@@H](CCCN)NC2=O)[C@@H](C)CC)CS1 [bacitracin] ({Ileψ(thiazoline)Cys}-L[dE]IK[dOrn]I[dF]H[dD]N; lactam 4-C),resistant
4,CN[C@H](CC(C)C)C(=O)N[C@H]1C(=O)N[C@@H](CC(N)=O)C(=O)N[C@H]2C(=O)N[C@H]3C(=O)N[C@H](C(=O)N[C@H](C(=O)O)c4cc(O)cc(O)c4-c4cc3ccc4O)[C@H](O)c3ccc(c(Cl)c3)Oc3cc2cc(c3O[C@@H]2O[C@H](CO)[C@@H](O)[C@H](O)[C@H]2O[C@H]2C[C@](C)(N)[C@H](O)[C@H](C)O2)Oc2ccc(cc2Cl)[C@H]1O [vancomycin],resistant
5,[H]/N=C(/N)N[C@H]1[C@H](O)[C@@H](O)[C@H](O[C@@H]2O[C@@H](C)[C@](O)(C=O)[C@H]2O[C@@H]2O[C@@H](CO)[C@H](O)[C@@H](O)[C@@H]2NC)[C@@H](N/C(N)=N\[H])[C@@H]1O [streptomycin],resistant
6,penicillin,resistant
7,NC[C@H]1O[C@H](O[C@H]2[C@H](O)[C@@H](O[C@H]3O[C@H](CO)[C@@H](O)[C@H](N)[C@H]3O)[C@H](N)C[C@@H]2N)[C@H](N)C[C@@H]1O [tobramycin],resistant
8,gentamicin,resistant

# Same assay, conditions: disk 5 µg; nutrient agar seeded with K. aridum, one week at 28°C; zones contained a few resistant colonies
row,Compound,zones of inhibition
1,CN(C)[C@@H]1C(O)=C(C(N)=O)C(=O)[C@@]2(O)C(O)=C3C(=O)c4c(O)ccc(Cl)c4[C@@](C)(O)[C@H]3C[C@@H]12 [Chlortetracycline],18 mm
2,CN(C)[C@@H]1C(O)=C(C(N)=O)C(=O)[C@@]2(O)C(O)=C3C(=O)c4c(O)cccc4[C@@](C)(O)[C@H]3C[C@@H]12 [tetracycline],11-12 mm
3,CO[C@H]1/C=C/O[C@@]2(C)Oc3c(C)c(O)c4c(O)c(c(/C=N/N5CCN(C)CC5)c(O)c4c3C2=O)NC(=O)/C(C)=C\C=C\[C@H](C)[C@H](O)[C@@H](C)[C@@H](O)[C@@H](C)[C@H](OC(C)=O)[C@@H]1C [rifampin],11-15 mm
4,CO[C@@H]1[C@@H](OC(N)=O)[C@@H](O)[C@H](Oc2ccc3c(O)c(NC(=O)c4ccc(O)c(CC=C(C)C)c4)c(=O)oc3c2C)OC1(C)C [novobiocin],27-28 mm

# Test system: Staph. aureus HH 127
# Assay: in vivo activity against intraperitoneal infection in mice (ED50)
# Settings: Staphylococcus aureus, HH127, read-out: ED₅₀
# Experimental: The ED₅₀'s were as follows: AAD 216 aglycone, 7.6 mg/kg; AAD 216 pseudo- aglycone, 7.6 mg/kg; AAD 216A pseudoaglycone, 5.0 mg./kg; vancomycin, 1.56 mg/kg. Similarly, the ED₅₀'s of AAD 216A pseudoaglycone, AAD 216B pseudoaglycone, AAD 216C pseudoaglycone and vancomycin, determined by utilizing a similar protocol, were 12.5 mg/kg, 7.6 mg/kg, 10.8 mg/kg and 1.92 mg/kg, respectively.
row,Compound,ED50 [mg/kg]
1,CNC1C(=O)NC2C(=O)NC(C(=O)NC3C(=O)NC4C(=O)NC(C(=O)NC(C(=O)O)c5cc(O)cc(O)c5-c5cc4ccc5O)C(O)c4cc(Cl)c(c(Cl)c4)Oc4cc3cc(c4O)Oc3ccc(cc3Cl)C2O)c2cc(cc(O)c2Cl)Oc2cc1ccc2O (stereo not shown) [AAD 216 aglycone],7.6
